Laboratory results: ChEMBL document CHEMBL3885881, “DrugMatrix”

Species on record: Rattus norvegicus
Test: DrugMatrix - Regimen: Daily Repeat
Format: toxicity, organism-based, Sprague-Dawley
Set-up: regimen Daily Repeat, gender Male, age 6-8 weeks
Settings: in vivo, po, route oral GAVAGE, […]; for ABSOLUTE BASOPHIL / ABSOLUTE EOSINOPHIL / ABSOLUTE LYMPHOCYTE / ABSOLUTE MONOCYTE / ABSOLUTE SEGMENTED NEUTROPHIL / BASOPHIL / EOSINOPHIL / ERYTHROCYTE COUNT / HEMATOCRIT / HEMOGLOBIN / LEUKOCYTE COUNT / LYMPHOCYTE / MEAN CORPUSCULAR HEMOGLOBIN / MEAN CORPUSCULAR HEMOGLOBIN CONCENTRATION / MEAN CORPUSCULAR VOLUME / MONOCYTE / NEUTROPHIL / NUCLEATED RED BLOOD CELLS / PLATELET COUNT: tissue Blood; for ALANINE AMINOTRANSFERASE / ALBUMIN / ALKALINE PHOSPHATASE / ASPARTATE AMINOTRANSFERASE / BLOOD UREA NITROGEN / CARBON DIOXIDE / CHLORIDE / CHOLESTEROL / CREATINE PHOSPHOKINASE / CREATININE / GLUCOSE / LACTATE DEHYDROGENASE / LIPASE / PHOSPHORUS / POTASSIUM / SODIUM / TOTAL BILIRUBIN / TOTAL PROTEIN / URIC ACID: tissue Plasma
[1] = 0 mg/kg, 72 h, dose level Control, time 3 day
[2] = 0 mg/kg, 120 h, dose level Control, time 5 day
[3] = 100 mg/kg, 72 h, dose level Low, time 3 day

## CCn1cc(C(=O)O)c(=O)c2cc(F)c(N3CCNCC3)nc21 [ENOXACIN]
[1]
  ABSOLUTE BASOPHIL: 0 CELLS/uL
  ABSOLUTE EOSINOPHIL: 104.17 CELLS/uL
  ABSOLUTE LYMPHOCYTE: 14547 CELLS/uL
  ABSOLUTE MONOCYTE: 292 CELLS/uL
  ABSOLUTE SEGMENTED NEUTROPHIL: 1640.17 CELLS/uL
  BASOPHIL: 0%
  EOSINOPHIL: 0.67%
  ERYTHROCYTE COUNT: 5.35 x10E6/uL
  HEMATOCRIT: 33.67%
  HEMOGLOBIN: 13.38 G/DL
  LEUKOCYTE COUNT: 16.58 x10E3/uL
  LYMPHOCYTE: 87.5%
  MEAN CORPUSCULAR HEMOGLOBIN: 25.05 pg
  MEAN CORPUSCULAR HEMOGLOBIN CONCENTRATION: 39.78 G/DL
  MEAN CORPUSCULAR VOLUME: 62.97 fL
  MONOCYTE: 1.83%
  NEUTROPHIL: 10%
  NUCLEATED RED BLOOD CELLS: 0 /100WBC
  PLATELET COUNT: 1274.5 x10E3/uL
  ALANINE AMINOTRANSFERASE: 76.83 u/L
  ALBUMIN: 3.97 G/DL
  ALKALINE PHOSPHATASE: 347 u/L
  ASPARTATE AMINOTRANSFERASE: 97.17 u/L
  BLOOD UREA NITROGEN: 14.33 mg/dL
  CARBON DIOXIDE: 25.5 mmol/L
  CHLORIDE: 100.33 MEQ/L
  CHOLESTEROL: 68.67 mg/dL
  CREATINE PHOSPHOKINASE: 659.17 u/L
  CREATININE: 0.32 mg/dL
  GLUCOSE: 160.67 mg/dL
  LACTATE DEHYDROGENASE: 271.5 u/L
  LIPASE: 11.67 u/L
  PHOSPHORUS: 10.65 mg/dL
  POTASSIUM: 5.95 MEQ/L
  SODIUM: 139.65 MEQ/L
  TOTAL BILIRUBIN: 0.2 mg/dL
  TOTAL PROTEIN: 5.72 G/DL
  URIC ACID: 1.37 mg/dL
[2]
  ABSOLUTE BASOPHIL: 0 CELLS/uL
  ABSOLUTE EOSINOPHIL: 331.5 CELLS/uL
  ABSOLUTE LYMPHOCYTE: 15021.67 CELLS/uL
  ABSOLUTE MONOCYTE: 376.5 CELLS/uL
  ABSOLUTE SEGMENTED NEUTROPHIL: 3070.33 CELLS/uL
  BASOPHIL: 0%
  EOSINOPHIL: 1.83%
  ERYTHROCYTE COUNT: 5.24 x10E6/uL
  HEMATOCRIT: 33.22%
  HEMOGLOBIN: 13.2 G/DL
  LEUKOCYTE COUNT: 18.8 x10E3/uL
  LYMPHOCYTE: 79.67%
  MEAN CORPUSCULAR HEMOGLOBIN: 25.17 pg
  MEAN CORPUSCULAR HEMOGLOBIN CONCENTRATION: 39.73 G/DL
  MEAN CORPUSCULAR VOLUME: 63.38 fL
  MONOCYTE: 2%
  NEUTROPHIL: 16.5%
  NUCLEATED RED BLOOD CELLS: 0 /100WBC
  PLATELET COUNT: 1142.67 x10E3/uL
  ALANINE AMINOTRANSFERASE: 52.5 u/L
  ALBUMIN: 3.9 G/DL
  ALKALINE PHOSPHATASE: 284.5 u/L
  ASPARTATE AMINOTRANSFERASE: 81.33 u/L
  BLOOD UREA NITROGEN: 16 mg/dL
  CARBON DIOXIDE: 25.33 mmol/L
  CHLORIDE: 99.5 MEQ/L
  CHOLESTEROL: 74.83 mg/dL
  CREATINE PHOSPHOKINASE: 448.33 u/L
  CREATININE: 0.37 mg/dL
  GLUCOSE: 164.17 mg/dL
  LACTATE DEHYDROGENASE: 290.67 u/L
  LIPASE: 6.83 u/L
  PHOSPHORUS: 11.5 mg/dL
  POTASSIUM: 6.28 MEQ/L
  SODIUM: 139.5 MEQ/L
  TOTAL BILIRUBIN: 0.13 mg/dL
  TOTAL PROTEIN: 5.55 G/DL
  URIC ACID: 1.12 mg/dL
[3]
  ABSOLUTE BASOPHIL: 0 CELLS/uL
  ABSOLUTE EOSINOPHIL: 0 CELLS/uL
  ABSOLUTE LYMPHOCYTE: 5797 CELLS/uL
  ABSOLUTE MONOCYTE: 86.67 CELLS/uL
  ABSOLUTE SEGMENTED NEUTROPHIL: 549.67 CELLS/uL
  BASOPHIL: 0%
  EOSINOPHIL: 0%
  ERYTHROCYTE COUNT: 5.41 x10E6/uL
  HEMATOCRIT: 34.57%
  HEMOGLOBIN: 13.57 G/DL
  LEUKOCYTE COUNT: 6.43 x10E3/uL
  LYMPHOCYTE: 90%
  MEAN CORPUSCULAR HEMOGLOBIN: 25.13 pg
  MEAN CORPUSCULAR HEMOGLOBIN CONCENTRATION: 39.27 G/DL
  MEAN CORPUSCULAR VOLUME: 64.03 fL
  MONOCYTE: 1.33%
  NEUTROPHIL: 8.67%
  NUCLEATED RED BLOOD CELLS: 0 /100WBC
  PLATELET COUNT: 1201 x10E3/uL
  ALANINE AMINOTRANSFERASE: 52.33 u/L
  ALBUMIN: 3.9 G/DL
  ALKALINE PHOSPHATASE: 346.33 u/L
  ASPARTATE AMINOTRANSFERASE: 78 u/L
  BLOOD UREA NITROGEN: 14 mg/dL
  CARBON DIOXIDE: 24.67 mmol/L
  CHLORIDE: 103 MEQ/L
  CHOLESTEROL: 70.33 mg/dL
  CREATINE PHOSPHOKINASE: 221.67 u/L
  CREATININE: 0.12 mg/dL
  GLUCOSE: 172.67 mg/dL
  LACTATE DEHYDROGENASE: 139.33 u/L
  LIPASE: 10 u/L
  PHOSPHORUS: 11.1 mg/dL
  POTASSIUM: 5.8 MEQ/L
  SODIUM: 142.37 MEQ/L
  TOTAL BILIRUBIN: 0.13 mg/dL
  TOTAL PROTEIN: 5.57 G/DL
  URIC ACID: 1.63 mg/dL
